Source: patent publication US20020137929A1, “1 - (3-heterocyclylphenyl) isothiourea, -isourea, -guanidine and -amidine herbicidal agents” (Intellectual Property Department, BASF Aktiengesellschaft, priority 1998, published 2002)

Columns and labels:
[1] = system: MOOVA (Monochoria); assay: Postemergence weed control under flooded paddy conditions; assay type: in vivo, Monochoria vaginalis; conditions: postemergence weeds
In short: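 Injury ratings (0–9 scale covering stand, vigor, malformation, size, chlorosis and overall appearance versus control) were made three to four weeks after treatment. Test material, about 0.0313 to 0.500 kg/ha a.i. in 50/50 v/v aqueous/acetone, was added to flood water 1.5 to 3 cm deep over 3 to 5 cm weeds and 1.5 to 2.5 leaf rice.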

[2] = system: TRZAWR (Wheat, Winter, cv Riband); assay: Postemergence herbicidal evaluation; assay type: in vivo, Triticum aestivum; conditions: for TRZAWR herbicidal rating: postemergence
In short: (§1)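 Two-week seedlings sprayed postemergence at 40 psi; formulation: 1:1 acetone/water, 0.5% TWEEN 20; application ≈0.0156–0.500 kg/ha. Greenhouse grow-out, then 0–9 visual scoring at 4–5 weeks.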

[3] = system: ORYSAT (Rice, Tebonnet); assay: Preemergence herbicidal evaluation; assay type: in vivo, Oryza sativa, (L.) Tebonnet; conditions: rated 4-5 weeks after treatment; for ORYSAT rating: preemergence, 0-9 scale
In short: (§2)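 Herbicidal effect scored visually, 0-9, at 4 to 5 weeks against a control; compound applied preemergence by aqueous acetone spray to seeded soil at about 0.0156 to 0.500 kg/ha.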

[4] = system: CHEAL (Lambsquarters, Common); assay: Preemergence herbicidal evaluation; assay type: in vivo, Chenopodium album; conditions: rated 4-5 weeks after treatment; for CHEAL rating: preemergence, 0-9 scale
In short: as §2

[5] = system: CHEAL (Lambsquarters, Common); assay: Postemergence herbicidal evaluation; assay type: in vivo, Chenopodium album; conditions: for CHEAL herbicidal rating: postemergence
In short: as §1

[6] = system: CASOB (Sicklepod); assay: Postemergence herbicidal evaluation; assay type: in vivo, Cassia obtusifolia; conditions: for CASOB herbicidal rating: postemergence
In short: as §1

[7] = rate 0.0313 kg/ha, 3-4 weeks after treatment
[8] = rate 0.0625 kg/ha, 3-4 weeks after treatment
[9] = rate 0.1250 kg/ha, 3-4 weeks after treatment
[10] = rate 0.2500 kg/ha, 3-4 weeks after treatment

## COC(=O)CC1SC(=Nc2cc(-n3c(=O)cc(C(F)(F)F)n(C)c3=O)c(F)cc2Cl)N(C)C1=O (stereo not shown) [Compound 88, Methyl 2-{{2-chloro-5-[3,6-dihydro-3-methyl-2,6-dioxo-4-(trifluoromethyl)-1(2H)-pyrimidinyl]-4-fluorophenyl}imino}-3-methyl-4-oxo-5-thiazolidineacetate]
[1]; Rate 0.0313 kg/ha, rated 3 to 4 weeks after treatment
  Herbicidal rating MOOVA: 9.0
[1]; Rate 0.0625 kg/ha, rated 3 to 4 weeks after treatment
  Herbicidal rating MOOVA: 9.0
[1]; Rate 0.1250 kg/ha, rated 3 to 4 weeks after treatment
  Herbicidal rating MOOVA: 9.0
[1]; Rate 0.2500 kg/ha, rated 3 to 4 weeks after treatment
  Herbicidal rating MOOVA: 9.0
[2]; rate 0.0158 kg/ha
  TRZAWR herbicidal rating: 5.5
[2]; rate 0.0315 kg/ha
  TRZAWR herbicidal rating: 7.0
[2]; rate 0.0630 kg/ha
  TRZAWR herbicidal rating: 7.5
[3]; 0.0156 kg/ha
  ORYSAT rating: 0.0
[3]; 0.0313 kg/ha
  ORYSAT rating: 0.0
[3]; 0.0625 kg/ha
  ORYSAT rating: 0.0
[3]; 0.1250 kg/ha
  ORYSAT rating: 2.0
[3]; 0.2500 kg/ha
  ORYSAT rating: 7.0
[4]; 0.0156 kg/ha
  CHEAL rating: 7.0
[4]; 0.0313 kg/ha
  CHEAL rating: 9.0
[4]; 0.0625 kg/ha
  CHEAL rating: 9.0
[4]; 0.1250 kg/ha
  CHEAL rating: 9.0
[4]; 0.2500 kg/ha
  CHEAL rating: 9.0
[5]; rate 0.0158 kg/ha
  CHEAL herbicidal rating: 9.0
[5]; rate 0.0315 kg/ha
  CHEAL herbicidal rating: 9.0
[5]; rate 0.0630 kg/ha
  CHEAL herbicidal rating: 9.0
[6]; rate 0.0158 kg/ha
  CASOB herbicidal rating: 0.0
[6]; rate 0.0315 kg/ha
  CASOB herbicidal rating: 3.0
[6]; rate 0.0630 kg/ha
  CASOB herbicidal rating: 3.0

## CCOC(=O)CN1C(=O)C(F)SC1=Nc1cc(-n2c(=O)cc(C(F)(F)F)n(C)c2=O)c(F)cc1Cl (stereo not shown) [Compound 11, Ethyl 2-{{2-chloro-5-[3,6-dihydro-3-methyl-2,6-dioxo-4-(trifluoromethyl)-1(2H)-pyrimidinyl]-4-fluorophenyl}imino}-5-fluoro-4-oxo-3-thiazolidineacetate]
[1]; [7]
  Herbicidal rating MOOVA: 0.0
[1]; [8]
  Herbicidal rating MOOVA: 1.0
[1]; [9]
  Herbicidal rating MOOVA: 4.0
[1]; [10]
  Herbicidal rating MOOVA: 7.0
[2]; rate 0.0156 kg/ha
  TRZAWR herbicidal rating: 4.5
[2]; rate 0.0313 kg/ha
  TRZAWR herbicidal rating: 4.5
[2]; rate 0.0625 kg/ha
  TRZAWR herbicidal rating: 5.5
[2]; rate 0.1250 kg/ha
  TRZAWR herbicidal rating: 6.0
[3]; rate 0.0156 kg/ha
  ORYSAT preemergence herbicidal rating: 0.0
[3]; rate 0.0313 kg/ha
  ORYSAT preemergence herbicidal rating: 0.0
[3]; rate 0.0625 kg/ha
  ORYSAT preemergence herbicidal rating: 0.0
[3]; rate 0.1250 kg/ha
  ORYSAT preemergence herbicidal rating: 2.0
[3]; rate 0.2500 kg/ha
  ORYSAT preemergence herbicidal rating: 4.0
[4]; rate 0.0156 kg/ha
  CHEAL preemergence herbicidal rating: 7.5
[4]; rate 0.0313 kg/ha
  CHEAL preemergence herbicidal rating: 9.0
[4]; rate 0.0625 kg/ha
  CHEAL preemergence herbicidal rating: 9.0
[4]; rate 0.1250 kg/ha
  CHEAL preemergence herbicidal rating: 9.0
[4]; rate 0.2500 kg/ha
  CHEAL preemergence herbicidal rating: 9.0
[5]; rate 0.0156 kg/ha
  CHEAL herbicidal rating: 7.0
[5]; rate 0.0313 kg/ha
  CHEAL herbicidal rating: 9.0
[5]; rate 0.0625 kg/ha
  CHEAL herbicidal rating: 9.0
[5]; rate 0.1250 kg/ha
  CHEAL herbicidal rating: 9.0
[6]; rate 0.0156 kg/ha
  CASOB herbicidal rating: 0.0
[6]; rate 0.0313 kg/ha
  CASOB herbicidal rating: 0.0
[6]; rate 0.0625 kg/ha
  CASOB herbicidal rating: 0.0
[6]; rate 0.1250 kg/ha
  CASOB herbicidal rating: 3.0

## CCOC(=O)CN1C(=O)CSC1=Nc1cc(N2C(=O)C3=C(CCCC3)C2=O)c(F)cc1Cl [Compound 47, Ethyl 2-{[2-chloro-5-(1-cyclohexene-1,2-dicarboximido)-4-fluorophenyl]imino}-4-oxo-3-thiazolidineacetate]
[1]; [7]
  Herbicidal rating MOOVA: 5.0
[1]; [8]
  Herbicidal rating MOOVA: 6.0
[1]; [9]
  Herbicidal rating MOOVA: 9.0
[1]; [10]
  Herbicidal rating MOOVA: 9.0
[2]; Rate 0.0156 kg/ha
  Postemergence herbicidal rating TRZAWR: 2.5
[2]; Rate 0.0313 kg/ha
  Postemergence herbicidal rating TRZAWR: 3.5
[2]; Rate 0.0625 kg/ha
  Postemergence herbicidal rating TRZAWR: 4.5
[3]; rate 0.0156 kg/ha
  Preemergence herbicidal rating ORYSAT: 0.0
[3]; rate 0.0313 kg/ha
  Preemergence herbicidal rating ORYSAT: 0.0
[3]; rate 0.0625 kg/ha
  Preemergence herbicidal rating ORYSAT: 0.0
[3]; rate 0.1250 kg/ha
  Preemergence herbicidal rating ORYSAT: 0.0
[3]; rate 0.2500 kg/ha
  Preemergence herbicidal rating ORYSAT: 0.0
[4]; rate 0.0156 kg/ha
  Preemergence herbicidal rating CHEAL: 9.0
[4]; rate 0.0313 kg/ha
  Preemergence herbicidal rating CHEAL: 9.0
[4]; rate 0.0625 kg/ha
  Preemergence herbicidal rating CHEAL: 9.0
[4]; rate 0.1250 kg/ha
  Preemergence herbicidal rating CHEAL: 9.0
[4]; rate 0.2500 kg/ha
  Preemergence herbicidal rating CHEAL: 9.0
[5]; Rate 0.0156 kg/ha
  Postemergence herbicidal rating CHEAL: 3.0
[5]; Rate 0.0313 kg/ha
  Postemergence herbicidal rating CHEAL: 4.0
[6]; Rate 0.0156 kg/ha
  Postemergence herbicidal rating CASOB: 0.0
[6]; Rate 0.0313 kg/ha
  Postemergence herbicidal rating CASOB: 2.0
[6]; Rate 0.0625 kg/ha
  Postemergence herbicidal rating CASOB: 2.0

## CCC1SC(=Nc2cc(-n3c(=O)cc(C(F)(F)F)n(C)c3=O)c(F)cc2Cl)N(C)C1=O (stereo not shown) [Compound 10]
[1]; [7]
  Herbicidal rating MOOVA: 9.0
[1]; [8]
  Herbicidal rating MOOVA: 9.0
[1]; [9]
  Herbicidal rating MOOVA: 9.0
[1]; [10]
  Herbicidal rating MOOVA: 9.0
[2]; rate 0.0156 kg/ha
  TRZAWR herbicidal rating: 2.5
[2]; rate 0.0313 kg/ha
  TRZAWR herbicidal rating: 3.3
[2]; rate 0.0625 kg/ha
  TRZAWR herbicidal rating: 3.3
[2]; rate 0.1250 kg/ha
  TRZAWR herbicidal rating: 3.5
[3]; rate 0.0156 kg/ha
  ORYSAT preemergence herbicidal rating: 1.0
[3]; rate 0.0313 kg/ha
  ORYSAT preemergence herbicidal rating: 3.0
[3]; rate 0.0625 kg/ha
  ORYSAT preemergence herbicidal rating: 4.5
[3]; rate 0.1250 kg/ha
  ORYSAT preemergence herbicidal rating: 6.5
[3]; rate 0.2500 kg/ha
  ORYSAT preemergence herbicidal rating: 7.5
[4]; rate 0.0156 kg/ha
  CHEAL preemergence herbicidal rating: 9.0
[4]; rate 0.0313 kg/ha
  CHEAL preemergence herbicidal rating: 9.0
[4]; rate 0.0625 kg/ha
  CHEAL preemergence herbicidal rating: 9.0
[4]; rate 0.1250 kg/ha
  CHEAL preemergence herbicidal rating: 9.0
[4]; rate 0.2500 kg/ha
  CHEAL preemergence herbicidal rating: 9.0
[5]; rate 0.0156 kg/ha
  CHEAL herbicidal rating: 7.0
[5]; rate 0.0313 kg/ha
  CHEAL herbicidal rating: 7.0
[5]; rate 0.0625 kg/ha
  CHEAL herbicidal rating: 9.0
[5]; rate 0.1250 kg/ha
  CHEAL herbicidal rating: 9.0
[6]; rate 0.0156 kg/ha
  CASOB herbicidal rating: 0.0
[6]; rate 0.0313 kg/ha
  CASOB herbicidal rating: 0.0
[6]; rate 0.0625 kg/ha
  CASOB herbicidal rating: 0.5
[6]; rate 0.1250 kg/ha
  CASOB herbicidal rating: 3.0
